This is an account of results in US20140100156A1 (SANOFI, priority 2012, published 2014).

Data set [1] is classed as physicochemical. The conditions noted are these: pH 4.5. As to the method: Prior to the testing of solubility and stability of a peptide batch, its content was determined. Therefore, two parameters were investigated, its purity (HPLC-UV) and the amount of salt load of the batch (ion chromatography). Since synthesized peptides contain primarily trifluoroacetate anions, only anion chromatography was performed.
. Therefore, solutions from solid samples were prepared in different buffer systems with a concentration of 1.0 mg/mL compound based on the previously determined content. HPLC-UV was performed after 2 h of gentle agitation from the supernatant, which was obtained by 20 min of centrifugation at 4000 rpm.
This analysis also served as starting point (t0) for the stability testing.
Instrument: Agilent 1100, column: X-Bridge C18 3.5 μm 2.1×150 mm (Waters), eluent: A: H20+500 ppm TFA/B: Methanol, flow: 0.55 mL/min, gradient: 0-5 min: 10-60% B; 5-15 min: 60-99% B; detection: 214 nm.

The target of data set [2] is T1, human GLP-1 receptor (Homo sapiens, UniProt P43220).
T1 construct: expressed in transfected cells; host or cells: HEK-293
The experiment in a line: cAMP response (HTRF) of HEK-293 cells stably expressing human GLP-1 receptor. In kind it is cell-based. The conditions noted are these: Table 5, read-out: EC50 hGLP-1R. In general terms: Time-resolved FRET reads energy transfer from a long-lived donor to a nearby acceptor.
Protocol: (§1) cAMP content of cells was determined using a kit from Cisbio Corp. (cat. no. 62AM4PEC) based on HTRF (Homogeneous Time Resolved Fluorescence). For preparation, cells were split into T175 culture flasks and grown overnight to near confluency in medium (DMEM/10% FBS). Medium was then removed and cells washed with PBS lacking calcium and magnesium, followed by proteinase treatment with accutase (Sigma-Aldrich cat. no. A6964). Detached cells were washed and resuspended in assay buffer (1×HBSS; 20 mM HEPES, 0.1% BSA, 2 mM IBMX) and cellular density determined. […] For measurement, 25 μl of test compound in assay buffer was added to the wells, followed by incubation for 30 minutes at room temperature.

The target in data set [3] is T2, human glucagon receptor (Homo sapiens, UniProt P47871).
T2 construct: expressed in transfected cells; host or cells: HEK-293
The experiment in a line: cAMP response (HTRF) of HEK-293 cells stably expressing human glucagon receptor. It counts as cell-based. The conditions noted are these: Table 5, read-out: EC50 hGlucagon-R.
Protocol: as §1

T1 sequence (P43220 24-463): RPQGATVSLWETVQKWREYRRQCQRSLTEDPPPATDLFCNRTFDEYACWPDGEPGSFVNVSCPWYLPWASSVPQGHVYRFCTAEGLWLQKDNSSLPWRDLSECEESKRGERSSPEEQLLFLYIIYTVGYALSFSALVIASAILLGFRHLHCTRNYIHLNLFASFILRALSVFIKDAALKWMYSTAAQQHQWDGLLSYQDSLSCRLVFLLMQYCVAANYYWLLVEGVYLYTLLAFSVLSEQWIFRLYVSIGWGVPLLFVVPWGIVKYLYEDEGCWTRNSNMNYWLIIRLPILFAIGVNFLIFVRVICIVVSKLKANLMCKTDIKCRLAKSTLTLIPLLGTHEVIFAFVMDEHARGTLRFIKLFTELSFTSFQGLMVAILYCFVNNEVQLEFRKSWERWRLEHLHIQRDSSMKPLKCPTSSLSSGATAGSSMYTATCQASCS
T2 sequence (P47871 26-477): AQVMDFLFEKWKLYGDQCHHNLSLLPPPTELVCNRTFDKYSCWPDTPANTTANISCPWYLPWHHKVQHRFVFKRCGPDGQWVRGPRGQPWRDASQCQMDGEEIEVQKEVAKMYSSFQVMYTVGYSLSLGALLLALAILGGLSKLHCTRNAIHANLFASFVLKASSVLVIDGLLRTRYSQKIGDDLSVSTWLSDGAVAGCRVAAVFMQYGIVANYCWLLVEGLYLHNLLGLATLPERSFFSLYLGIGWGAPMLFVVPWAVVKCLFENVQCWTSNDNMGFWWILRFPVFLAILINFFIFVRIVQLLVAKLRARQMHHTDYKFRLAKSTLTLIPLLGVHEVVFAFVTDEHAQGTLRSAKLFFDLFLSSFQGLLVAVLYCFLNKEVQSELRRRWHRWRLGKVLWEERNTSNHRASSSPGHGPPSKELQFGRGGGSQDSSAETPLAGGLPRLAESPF

As to `CCCCCCCCCCCCCCCC(=O)N[C@@H](CCC(=O)NCCCC[C@H](NC(=O)[C@H](C)NC(=O)[C@H](C)NC(=O)[C@H](CCC(N)=O)NC(=O)CNC(=O)[C@H](CCC(=O)O)NC(=O)[C@H](CC(C)C)NC(=O)[C@H](Cc1ccc(O)cc1)NC(=O)[C@H](CO)NC(=O)[C@H](CO)NC(=O)[C@@H](NC(=O)[C@H](CC(=O)O)NC(=O)[C@H](CO)NC(=O)[C@@H](NC(=O)[C@H](Cc1ccccc1)NC(=O)[C@@H](NC(=O)CNC(=O)[C@H](CCC(=O)O)NC(=O)[C@H](C)NC(=O)[C@@H](N)Cc1cnc[nH]1)[C@@H](C)O)[C@@H](C)O)C(C)C)C(=O)N[C@@H](CCC(=O)O)C(=O)N[C@@H](Cc1ccccc1)C(=O)N[C@H](C(=O)N[C@@H](C)C(=O)N[C@@H](Cc1c[nH]c2ccccc12)C(=O)N[C@@H](CC(C)C)C(=O)N[C@H](C(=O)N[C@@H](CCCNC(=N)N)C(=O)NCC(=O)N[C@@H](CCCNC(=N)N)C(=O)NCC(=O)O)C(C)C)[C@@H](C)CC)C(=O)O` [compound 195], in data set [1], the “Solubility pH4.5” value was determined as 0 mg/ml.
Regarding `CCCCCCCCCCCCCCCC(=O)N[C@@H](CCC(=O)NCCCC[C@H](NC(=O)[C@H](CCC(N)=O)NC(=O)[C@H](CCCCN)NC(=O)[C@H](CO)NC(=O)[C@H](CC(C)C)NC(=O)[C@H](CC(=O)O)NC(=O)[C@H](CO)NC(=O)[C@@H](NC(=O)[C@H](Cc1ccccc1)NC(=O)[C@@H](NC(=O)CNC(=O)[C@H](Cc1c[nH]cn1)NC(=O)[C@H](CO)NC(=O)[C@@H](N)Cc1c[nH]cn1)[C@@H](C)O)[C@@H](C)O)C(=O)N[C@@H](CCC(=O)O)C(=O)N[C@@H](CO)C(=O)N[C@@H](CCCNC(=N)N)C(=O)N[C@@H](CCCNC(=N)N)C(=O)N[C@@H](C)C(=O)N[C@@H](CCC(N)=O)C(=O)N[C@@H](CC(=O)O)C(=O)N[C@@H](Cc1ccccc1)C(=O)N[C@H](C(=O)N[C@@H](CCC(=O)O)C(=O)N[C@@H](Cc1c[nH]c2ccccc12)C(=O)N[C@@H](CC(C)C)C(=O)N[C@@H](CCCCN)C(=O)N[C@@H](C)C(=O)NCC(=O)NCC(=O)N1CCC[C@H]1C(=O)N[C@@H](CO)C(=O)N[C@@H](CO)C(=O)NCC(=O)N[C@@H](C)C(=O)N1CCC[C@H]1C(=O)N1CCC[C@H]1C(=O)N1CCC[C@H]1C(=O)N[C@@H](CO)C(N)=O)[C@@H](C)CC)C(=O)O` [compound 208], the EC50 in data set [2] is 2 pM; in data set [3] it was 1.3 pM.

The term EC50 denotes the concentration that produces a half-maximal response.
